Laboratory results reported in patent US20060198882A1, “Stable liposomes or micelles comprising a sphinolipid and a peg-lipopolymer” (priority 2003, published 2006).

What was measured:
[1] = Injection of ceramide dispersions into mice (tolerance, weight); details: for decrease from initial weight: mouse, in vivo
Procedure: […] of C2Cer and C6Cer dispersions in ethanol or in ethanol:dodecane (98:2) (required final blood concentration of about 3.3%) were injected to the Balb/c female mice (8 week old).
In addition, 1 μmole/mouse of C2Cer and C6Cer dispersions in ethanol or in ethanol:dodecane (98:2) in isotonic BSA solution (BSA 2 mM, NaCl 112 mM, pH 7.4) was injected in order to reach the final ethanol or ethanol:dodecane blood concentration of about 3.3%. For the preparation of ceramide-BSA complexes the 33 μl of 30 mM stock of C2Cer and C6Cer dispersions were incubated for 30 min at 30° C. with 417 μl of 2 mM BSA solution in order to reach the ceramide/BSA mole ratio of 1/0.8, respectively [Hannun, Supra, 2000].

[2] = Surface-pressure area isotherms; format: physicochemical; details: for minimal area per molecule: constant pressure of 20 mN/m; for collapse point pressure of monolayer: pure water sub-phase; for Area/molecule: table, monolayer on pure water sub-phase
Procedure: The tested ceramides (C2 Cer, C4 Cer, C6 Cer, C8 Cer, C16 Cer) were dried in vacuum overnight, weighted and dissolved in hexane/isopropanol (3:2 vol.) to make the following stock solutions.
The surface-pressure/area isotherms were obtained on pure water sub-phase (similar isotherms were obtained on 140 mM NaCl). Barrier speed during compression was […] for all monolayers.
The minimal area per molecule of different ceramides (C2 Cer, C4 Cer, C6 Cer, C8 Cer, C16 Cer) was calculated at the constant pressure of 20 mN/m. […] The area per molecule of C2 Cer, C4 Cer, C8 Cer, C16 Cer was about 38, 46, 45.5, and 37.5^2, respectively.

[3] = Size distribution of ceramide dispersions by DLS; format: physicochemical
Procedure: The particle size distribution of all liposome dispersions prepared was determined at 25° C. by dynamic light-scattering (DLS) using the ALV-NIBS/HPPS ALV-Laser, Vertriebsgesellschaft GmbH, (Langen, Germany) instrument.
However, so far the biological activity of the ceramides was not evaluated in vivo in spite their potential beneficial activity due to difficulties in their delivery. As mentioned above, ceramides by themselves are difficult to be dispersed in serum-free medium. […] When a volume of ceramides (C2Cer, C6Cer, and C16Cer) in ethanol:dodecane (98:2 v/v) was diluted into 100 volumes of serum-free medium a milky translucent dispersion was formed.
However, when these ceramide dispersions were diluted further (final dilution 1:1000) in serum-containing medium, a 4-6 fold increase in particle size was observed. As a control, when the solvents ethanol:dodecane (98:2) were mixed by themselves with medium without ceramides, no particles were detected by DLS. Also, for comparison, when ceramide solutions in ethanol (without dodecane) were diluted 1:100 in serum-containing medium very large particles were observed by DLS (Table 11).

[4] = system: caspase-3 activity in OV-1063 tumor cells; experiment: EnzChek Caspase-3 assay; format: cell-based, human; details: 16 hr, IC50 values
Source text: Biochemically, apoptosis was verified by the EnzChek™ Caspase-3 Assay Kit (Molecular Probes). This allows the detection of apoptosis by assaying for increases in caspase-3 and other DEVD-specific protease activities (e.g., caspase-7). The basis for the assay is rhodamine 110 bis-(N-CBZ-aspartyl-L-glutamyl-L-valyl-aspartic acid amide) referred to as Z-DEVD-R110. This substrate is a bisamide derivative of rhodamine 110 (R110) containing DEVD peptides covalently linked to each of R110's amino groups. Upon enzymatic cleavage, the nonfluorescent bisamide substrate is converted to the fluorescent R110, which was quantified by a fluorescence microplate reader (Tecan) using excitation at 485±10 nm and emission at 535±10 nm. […] The AC-DEVD-inhibitor was used to confirm that the observed fluorescence signal in treated samples is due to the activity of caspase-3 protease. Both induced and control cells were then harvested and lysed. Enzyme reactions were performed in 96-well plates with 50 μg of cytosolic proteins (55 min. of incubation) and a final concentration of 25 μM Z-DEVD-R110 substrate, as described in the kit protocol.

| SMILES | death of mice ([1]; ethanol:dodecane (98:2) dispersions) | decrease from initial weight [1] | minimal area per molecule [2] | collapse point pressure of monolayer [2] | Area/molecule [2] [A^2] | Size (nm), Ethanol dispersion in serum-containing medium (1:100) [3] [nm] | Size (nm), Ethanol:dodecane (98:2) dispersion in serum-containing medium (1:1000) [3] [nm] | Size (nm), Ethanol:dodecane (98:2) dispersion in serum-free medium (1:100) [3] [nm] | monolayer stability [2] | increase in caspase-3 activity vs control, untreated cells [4] |
| --- | --- | --- | --- | --- | --- | --- | --- | --- | --- | --- |
| CCCCCCCCCCCCC/C=C/[C@@H](O)[C@H](CO)NC(=O)CCCCC [C6Cer, N-hexanoyl-D-erythro-sphingosine] | died during the injection | about 5% | about 50 Å^2 | about 42 mN/m | 50 | 3780 | 2100 | 330 | – | – |
| CCCCCCCCCCCCC/C=C/[C@@H](O)[C@H](CO)NC(C)=O [C2Cer, N-Acetyl-D-erythro-sphingosine] | – | about 5% | about 38 Å^2 | about 42 mN/m | 38 | 6514 | 1400 | 330 | did not give a stable monolayer | – |
| CCCCCCCCCCCCC/C=C/[C@@H](O)[C@H](CO)NC(=O)CCCCCCCCCCCCCCC [C16Cer, N-palmitoyl-D-erythro-sphingosine] | – | – | ~37.5 Å^2 | up to 50 mN/m | 37.5 | 4740 | 2824 | 790 | unstable monolayer | no activation |
